Like-named read-outs stand apart in the source and are kept apart here.
Legend:
[1] = system: mitochondrial respiration chain; assay type: biochemical, mouse
Procedure: The mitochondrial integrity and function was analysed by measuring the oxygen consumption of the different complexes in the mitochondrial respiration chain. Therefore, the isolation and oxygen consumption of the mitochondria were based on the protocol of Frezza et al. (Organelle isolation: functional mitochondria from mouse liver, muscle and cultured fibroblasts. Nat Protoc, 2 (2): 287-295, 2007.) with some modifications. All chemicals and kits were supplied by Sigma Aldrich, Germany.
The oxygen consumption was measured by a microcathode oxygen electrode (S1782, Strathkelvin Instruments, Great Britain). The electrodes were calibrated according to the manufacturer's protocol. Mitochondria (1 mg protein) were suspended in 1 ml experimental buffer ([…], 10 mM Tris/MOPS, 40 mM EGTA/Tris 4, […]). As a substrate of complexes II, III and IV, 5 mM succinate was added. The main read out is the "respiratory control ratio (RCR)" that can be calculated by the ratio of "state 3" and "state 4" respiration, which is equivalent to the ratio of ADP-dependent respiration and ADP-independent respiration. […] If the ADP was consumed completely, the slope of the oxygen consumption ("state 4" respiration) looked similar to the "state 2" slope.

[2] = system: liver; conditions: 1 h ischemia and 1 h reperfusion, all STS doses (Fig. 4b)
Procedure: To implement the ex vivo IRI model, the liver was perfused via the portal vein with oxygenated Krebs-Henseleit buffer for 5 min one-way and 5 min in reverse. Afterwards, the pump was stopped for 1 h followed by 1 h reperfusion. During reperfusion, tissue samples were collected every 10 min.
The method is based on the reaction of GSH with 5,5'-dithiobis(2-nitrobenzoic acid) (DTNB), whereby 2-nitro-5-mercaptobenzoic acid is cleaved, which then leads to a color change. The frozen liver samples were homogenised in a 0.2 M sodium phosphate buffer (pH 8), containing 0.005 M EDTA, and four volumes of 25 % metaphosphoric acid. Subsequently, the samples were centrifuged at 9000 x rcf for 30 min at 4 °C. The absorbance was read at 412 nm using a Spekol 1100 (Carl Zeiss GmbH, Jena, Germany). A standard curve was performed with GSH.
In addition, the GSSG concentration was assessed fluorometrically (fluorescencespectrophotometer F-2000, Hitachi, Tokio, Japan). […] The fluorescence intensity is proportional to the GSSG concentration. […]
Therefore, a monovascular perfusion of the liver through the portal vein (anterograde perfusion) was carried out. […] During the whole experiment, the pressure within the liver was monitored via a pressure transducer (Biopac®Systems Inc, MP150, CA, USA) to control the physiological pressure of the liver. […]

[3] = system: TOM20; conditions: for TOM20 signal: immunofluorescence, without STS 258, healthy control 672
Procedure: In addition to autophagy marker proteins, the translocase of the mitochondrial outer membrane 20 (TOM20) was analysed. […] To detect a possible specific loss of TOM20 in liver cells, immunofluorescence staining was carried out.
Finally, the liver tissue samples were stored for histological and molecular biological analysis.
The total protein content was isolated from the frozen tissue samples by an protein isolation buffer pH 7.5 (10 mM Tris, 250 mM saccharose, 1 mM EDTA, 1 % phosphatase-inhibitor, 1 % protease-inhibitor). To keep organelles and membranes as intact as possible, a tightly fitting Dounce homogenizer (Kimble Chase, Mexico) was used resulting in a mild and mechanical homogenisation. Afterward, the homogenate was centrifuged at 900 x rcf for 10 min at 4 °C. The protein content in the post nucleus supernatant was determined using the BCA assay (Sigma Aldrich, Hamburg, Germany). In addition, the samples were incubated for 15 min at room temperature with Laemmli sample buffer to denature the protein structure.
Afterward, the proteins were separated by size using 4-12 % SDS-gels (NuPAGE® Bis-Tris Gel, Invitrogen, Germany) in a SDS-Gel electrophoresis (XCellSureLock® Mini Gel chamber and NuPAGE®MOPS SDS Running Buffer, Invitrogen, Germany). Subsequently, the proteins were transferred to a PVDF-membrane (Roth, Germany). A blocking solution containing tris-buffered saline and tween 20 (TBST) pH 7.5 (10 mM Tris, 100 mM NaCl, 0.1 % Tween 20) 5 % BSA or skim milk (Sigma-Aldrich, Germany) was used to block unspecific bindings. The membrane was incubated with this solution for 1 h at room temperature. Next, the membrane was incubated with a rabbit polyclonal LC3B antibody (Cell Signaling Technology®, Danvers, USA 1:500 dilution), a rabbit polyclonal TOM20 antibody (Abcam®, Cambridge, UK 1:500 dilution) or a rabbit polyclonal β-actin antibody (Abcam®, Cambridge, UK 1:2,000 dilution) overnight at 4 °C. All primary antibodies were diluted in the blocking solution depending on the manufacture's protocol. After washing the membrane with TBST buffer 3 times, a horseradish peroxidase (HRP)-conjugated secondary antibody (1:5,000) was added for 1 h at room temperature. In the last step, the membrane was washed again with TBST buffer 3 times.
Detection of the secondary antibody by chemiluminescence was performed using HRP substrate (Immobilon Western HRP Substrat, Merck Millipore, USA) by the LAS3000 (GE Healthcare, Frankfurt, Germany). Finally, the target proteins were quantified by densitometric analysis in the software ImageJ (National Institutes of Health, USA). B-actin served as loading control to calculate the differences in the protein expression between the groups.
Immunofluorescence staining was used to investigate the TOM20 localisation. […]

[4] = system: mitochondria; conditions: low dose STS, 1 h after reperfusion (Fig. 5a)
Procedure: The analysis of the ultra-structure of the tissue was performed by TEM. Therefore, the liver had to be perfused with 4 ml/min for 2 min with warm, oxygenated KBH to wash out all blood as described in section 3.4. Afterward, the liver was perfused with fixation buffer pH 7.4 (4 % paraformaldehyde, 2.5 % glutaraldehyde, 0.1 M sodium cacodylate) for 4 min. After the fixation, the liver was removed and cut into 1-2 mm slices. These slides were incubated overnight in the fixation buffer at 4 °C. Subsequently, the slices were cut into cubes and stored in 0.1 M cacodylate buffer.
The samples were embedded in Araldite resin (Piano, Wetzlar, Germany) according to manufacturer's instruction. Semithin sections (1 µm) were stained with Richardson's methylene blue to get a general overview. The areas of the samples were then further trimmed down to 500 x 500 µm. Ultra-thin sections of 80 nm thickness were cut using the ultramicrotome Ultracut E (Reichert-Jung, Wien, Austria). Finally, sections were investigated using a transmission electron microscope EM900 (Zeiss).

[5] = system: hepatic IRI; conditions: medium dose 0.045 g STS/kg BW into tail vein
Procedure: Intravital microscopy has been used to analyse the early reperfusion injury in WT and Cse^-/- mice. Assay of plasma parameters and histological staining was applied to analyse later IRI. Rhodamine 123 was injected into the tail vein 5 min before the onset of the experiment. […] The mice were monitored for 2 h without IRI in the sham control group.
In all experiments male WT and Cse^-/- mice between 10 and 12 weeks were used for a standardised hepatic IRI model. One week before the experiments started, 100 µl blood was taken from the orbital sinus. Body temperature was maintained with a heating plate. During the actual experiment, ischemia was induced in the left lateral lobe of the liver by clamping the hepatic artery and the portal vein using a microaneurysm clamp (FST, Heidelberg, Germany). This procedure results in a segmental (30 %) ischemia. […]
IVM was conducted to monitor the mitochondrial membrane potential in vivo with confocal laser scanning microscopy. Therefore, the animals remained under deep general anesthesia using isoflurane and pain reflexes were assessed to gauge the depth of anesthesia. […] Rhodamine 123 was excited at 488 nm (Argon/2 laser) and the emitted light was detected by a monochromatic filter at 530 ± 30 nm (GaAsP detector). […] The standard deviation of the Rhodamine 123 fluorescence signal was calculated to quantify the changes of the mitochondrial granularity over time. […]

[6] = system: hepatic IRI
Excerpt: The mice were imported by embryonic transfer into the animal facility of the Jena University Hospital and conducted under pathogen free conditions. The original mixed Sv129/C57 background was backcrossed to a 99 % C57BL/6 background. In all experiments male WT and Cse^-/- mice between 10 and 12 weeks were used for a standardised hepatic IRI model. […] Body temperature was maintained with a heating plate. During the actual experiment, ischemia was induced in the left lateral lobe of the liver by clamping the hepatic artery and the portal vein using a microaneurysm clamp (FST, Heidelberg, Germany). This procedure results in a segmental (30 %) ischemia. After 1 h, the clamp was removed to initiate the reperfusion. The reperfusion time points were set to 1 h or 24 h. Subsequently, the mice were sacrificed and both, plasma and organs, were harvested. During deep isoflurane (Forene®, Abb-Vie Deutschland GmbH & Co. KG, Ludwigshafen, Germany) anaesthesia, the blood was collected and plasma was generated. Next, the liver, the kidney and the spleen were removed and washed with saline.
The analysis of the ultra-structure of the tissue was performed by TEM. Therefore, the liver had to be perfused with 4 ml/min for 2 min with warm, oxygenated KBH to wash out all blood as described in section 3.4. […]

| Substance | decline of RCR induced by tert-BOOH oxidative stress ([1]; 200 µM tert-BOOH + 1 µM NaHS (Fig. 3b)) | mitochondrial respiratory activity ([1]; at low doses (Fig. 3a)) | concentration that induced inhibitory effects on respiratory control ratio (RCR) ([1]; isolated mitochondria, 0-100 µM NaHS, no oxidative stress (Fig. 3a)) | RCR at higher concentrations [1] | mitochondrial respiratory activity [1] | amount of total glutathione [2] | TOM20 levels by Western blot ([3]; healthy controls vs IRI treated livers vs STS treated groups (Fig. 6a)) | TOM20 signal ([3]; high dose 0.45 g STS/kg BW) | TOM20 signal ([3]; low dose 0.0045 g STS/kg BW) | TOM20 signal ([3]; medium dose 0.045 g STS/kg BW) | mitochondrial structure by transmission electron microscopy [4] | mitochondrial granularity ([5]; WT and Cse-/- mice, end of reperfusion (120 min)) | mitochondrial granularity ([5]; WT mice, beginning of reperfusion (60 min)) | mitochondrial ultrastructure by transmission electron microscopy ([6]; Cse-/- mice after IRI with STS treatment (Fig. 8b)) | mitochondrial ultrastructure by transmission electron microscopy ([6]; WT mice after IRI with STS treatment (Fig. 8b)) |
| --- | --- | --- | --- | --- | --- | --- | --- | --- | --- | --- | --- | --- | --- | --- | --- |
| sodium hydrogen sulphide [NaHS] | compensated the decline of RCR | stimulated mitochondrial respiratory activity | 100 µM | – | – | – | – | – | – | – | – | – | – | – | – |
| sodium thiosulfate [STS] | – | – | – | decreased RCR | stimulated mitochondrial respiratory activity | significantly decreased by IRI independently on STS treatment | no significant differences | 194 positive cells per mm^2 | 305 positive cells per mm^2 | 422 positive cells per mm^2 | retained their normal structure | This effect was also detected | pronounced recovery of the mitochondrial granularity | electron-dense accumulation | normal mitochondrial architecture |
